Source: article PMC5218480 (PLoS ONE, 2017)

Tested on: MV-4-11 cells
Test: Gene expression microarray analysis (Affymetrix PrimeView) and GSEA
Format: cell-based, human
Design: RFU PODN (11730768_x_at) / Fold change /veh PODN (11730768_x_at) / RFU LINC00158 (11744669_a_at) / Fold change /veh LINC00158 (11744669_a_at) / RFU DUSP10 (11751237_a_at) / Fold change /veh DUSP10 (11751237_a_at) / RFU ID3 (11757404_x_at) / Fold change /veh ID3 (11757404_x_at) / RFU PLEKHG5 (11737974_s_at) / Fold change /veh PLEKHG5 (11737974_s_at) / RFU LRRC4B (11730491_at) / Fold change /veh LRRC4B (11730491_at) / RFU GIMAP4 (11747438_a_at) / Fold change /veh GIMAP4 (11747438_a_at) / RFU KRT8 (11758183_x_at) / Fold change /veh KRT8 (11758183_x_at) / RFU CNN1 (11734310_a_at) / Fold change /veh CNN1 (11734310_a_at) / RFU VPS37D (11726825_at) / Fold change /veh VPS37D (11726825_at) / RFU C10orf10 (11716522_x_at) / Fold change /veh C10orf10 (11716522_x_at) / RFU KIR2DL2 /// KIR2DL4 /// KIR2DL5A /// KIR2DL5B /// KIR2DS1 /// KIR2DS2 /// KIR2DS3 /// KIR2DS4 /// KIR3DL3 /// KIR3DL3 /// KIR3DS1 (11738374_at) / Fold change /veh KIR2DL2 /// KIR2DL4 /// KIR2DL5A /// KIR2DL5B /// KIR2DS1 /// KIR2DS2 /// KIR2DS3 /// KIR2DS4 /// KIR3DL3 /// KIR3DL3 /// KIR3DS1 (11738374_at) / RFU C1QL1 (11718748_at) / Fold change /veh C1QL1 (11718748_at) / RFU TMPRSS4 (11747572_a_at) / Fold change /veh TMPRSS4 (11747572_a_at) / RFU HAMP (11756126_x_at) / Fold change /veh HAMP (11756126_x_at) / RFU RNFT2 (11725882_a_at) / Fold change /veh RNFT2 (11725882_a_at) / RFU NR4A2 (11747474_a_at) / Fold change /veh NR4A2 (11747474_a_at) / RFU ABCC12 (11746883_a_at) / Fold change /veh ABCC12 (11746883_a_at) / RFU TMEM136 (11760407_x_at) / Fold change /veh TMEM136 (11760407_x_at) / RFU CLDN22 /// WWC2 (11732394_at) / Fold change /veh CLDN22 /// WWC2 (11732394_at) / RFU HLA-DPB1 (11760878_x_at) / Fold change /veh HLA-DPB1 (11760878_x_at) / RFU SPINT1 (11716480_a_at) / Fold change /veh SPINT1 (11716480_a_at) / RFU GAP43 (11754022_s_at) / Fold change /veh GAP43 (11754022_s_at) / RFU A4GNT (11735810_at) / Fold change /veh A4GNT (11735810_at) / RFU PRB3 (11715151_x_at) / Fold change /veh PRB3 (11715151_x_at) / RFU TUBB4B (11761932_at) / Fold change /veh TUBB4B (11761932_at) / RFU CAPN14 (11732068_a_at) / Fold change /veh CAPN14 (11732068_a_at) / RFU TMCC2 (11721928_a_at) / Fold change /veh TMCC2 (11721928_a_at) / RFU IRGQ (11745062_a_at) / Fold change /veh IRGQ (11745062_a_at) / RFU FAM174B (11720279_a_at) / Fold change /veh FAM174B (11720279_a_at) / RFU TMPRSS4 (11748680_a_at) / Fold change /veh TMPRSS4 (11748680_a_at) / RFU FAM212B (11763350_a_at) / Fold change /veh FAM212B (11763350_a_at) / RFU PLEKHG5 (11743358_a_at) / Fold change /veh PLEKHG5 (11743358_a_at) / RFU ZSCAN30 (11745921_a_at) / Fold change /veh ZSCAN30 (11745921_a_at) / RFU CMKLR1 (11741424_a_at) / Fold change /veh CMKLR1 (11741424_a_at) / RFU LOC101060620 /// MAPK8IP1 (11723275_at) / Fold change /veh LOC101060620 /// MAPK8IP1 (11723275_at) / RFU SPTSSB (11747773_x_at) / Fold change /veh SPTSSB (11747773_x_at) / RFU PRSS12 (11739890_at) / Fold change /veh PRSS12 (11739890_at) / RFU BIN1 (11741810_x_at) / Fold change /veh BIN1 (11741810_x_at) / RFU WNT11 (11732464_a_at) / Fold change /veh WNT11 (11732464_a_at) / RFU C10orf10 (11716521_a_at) / Fold change /veh C10orf10 (11716521_a_at) / RFU C5orf56 (11738089_at) / Fold change /veh C5orf56 (11738089_at) / RFU CYB561 (11721691_x_at) / Fold change /veh CYB561 (11721691_x_at) / RFU ANKRD19P (11752326_a_at) / Fold change /veh ANKRD19P (11752326_a_at) / RFU OR2T12 /// OR2T33 /// OR2T8 (11738714_s_at) / Fold change /veh OR2T12 /// OR2T33 /// OR2T8 (11738714_s_at) / RFU VCAN (11748164_a_at) / Fold change /veh VCAN (11748164_a_at) / RFU JSRP1 (11732532_at) / Fold change /veh JSRP1 (11732532_at) / RFU KRTAP10-11 (11738290_x_at) / Fold change /veh KRTAP10-11 (11738290_x_at) / RFU MYO3A (11730013_a_at) / Fold change /veh MYO3A (11730013_a_at) / RFU EBF3 (11725865_a_at) / Fold change /veh EBF3 (11725865_a_at) / RFU CAMK2N1 (11719241_x_at) / Fold change /veh CAMK2N1 (11719241_x_at) / RFU C5orf56 (11738088_a_at) / Fold change /veh C5orf56 (11738088_a_at) / RFU OLFML3 (11715873_a_at) / Fold change /veh OLFML3 (11715873_a_at) / RFU LOC100653217 /// NTM (11731650_a_at) / Fold change /veh LOC100653217 /// NTM (11731650_a_at) / RFU MAPK11 (11762145_a_at) / Fold change /veh MAPK11 (11762145_a_at) / RFU FIZ1 (11724087_x_at) / Fold change /veh FIZ1 (11724087_x_at) / RFU OASL (11726364_x_at) / Fold change /veh OASL (11726364_x_at) / RFU SOX15 (11748057_x_at) / Fold change /veh SOX15 (11748057_x_at) / RFU CD79A (11719716_a_at) / Fold change /veh CD79A (11719716_a_at) / RFU HIST1H1D (11736915_at) / Fold change /veh HIST1H1D (11736915_at) / RFU CASKIN2 (11723855_a_at) / Fold change /veh CASKIN2 (11723855_a_at) / RFU LOC730098 (11760151_x_at) / Fold change /veh LOC730098 (11760151_x_at) / RFU OR4N2 (11742367_at) / Fold change /veh OR4N2 (11742367_at) / RFU PRRT2 (11749266_a_at) / Fold change /veh PRRT2 (11749266_a_at) / RFU SNX32 (11753110_a_at) / Fold change /veh SNX32 (11753110_a_at) / RFU CDHR5 (11726645_a_at) / Fold change /veh CDHR5 (11726645_a_at) / RFU RCAN1 (11760418_a_at) / Fold change /veh RCAN1 (11760418_a_at) / RFU FAM167A (11723789_a_at) / Fold change /veh FAM167A (11723789_a_at) / RFU FAM26E (11764081_at) / Fold change /veh FAM26E (11764081_at) / RFU ISYNA1 (11749810_s_at) / Fold change /veh ISYNA1 (11749810_s_at) / RFU ACY1 (11761880_at) / Fold change /veh ACY1 (11761880_at) / RFU 11764098_at / Fold change /veh 11764098_at / RFU SAMD14 (11745864_x_at) / Fold change /veh SAMD14 (11745864_x_at) / RFU NPB (11741838_a_at) / Fold change /veh NPB (11741838_a_at) / RFU TMPRSS6 (11731388_a_at) / Fold change /veh TMPRSS6 (11731388_a_at) / RFU KRTAP10-2 (11738614_at) / Fold change /veh KRTAP10-2 (11738614_at) / RFU ARHGAP8 /// PRR5-ARHGAP8 (11727945_x_at) / Fold change /veh ARHGAP8 /// PRR5-ARHGAP8 (11727945_x_at) / RFU KRTAP5-7 /// NADSYN1 (11734609_at) / Fold change /veh KRTAP5-7 /// NADSYN1 (11734609_at) / RFU RASL12 (11751679_a_at) / Fold change /veh RASL12 (11751679_a_at) / RFU CDKN2B (11736163_a_at) / Fold change /veh CDKN2B (11736163_a_at) / RFU PRF1 (11729649_at) / Fold change /veh PRF1 (11729649_at) / RFU, ZNF638 /// ZNF638-IT1 / Fold change vs veh, ZNF638 /// ZNF638-IT1 / RFU, PANK3 / Fold change vs veh, PANK3 / RFU, SH3YL1 / Fold change vs veh, SH3YL1 / RFU, ZEB2 / Fold change vs veh, ZEB2 / RFU, NRIP1 / Fold change vs veh, NRIP1 / RFU, PTTG1IP / Fold change vs veh, PTTG1IP / RFU, CAPN2 / Fold change vs veh, CAPN2 / RFU, MED14 / Fold change vs veh, MED14 / RFU, SNORA58 / Fold change vs veh, SNORA58 / RFU, C1orf63 / Fold change vs veh, C1orf63 / RFU, LRRFIP1 / Fold change vs veh, LRRFIP1 / RFU, NDUFAF7 / Fold change vs veh, NDUFAF7 / RFU, SLC12A2 / Fold change vs veh, SLC12A2 / RFU, IBTK / Fold change vs veh, IBTK / RFU, ESF1 / Fold change vs veh, ESF1 / Fold change vs veh, TMEM50B / RFU, TAOK1 / Fold change vs veh, TAOK1 / RFU, ACBD3 / Fold change vs veh, ACBD3 / RFU, TMA16 / Fold change vs veh, TMA16 / RFU, RWDD3 / Fold change vs veh, RWDD3 / RFU, BCAT1 / Fold change vs veh, BCAT1 / RFU, EDEM3 / Fold change vs veh, EDEM3 / RFU, TMEM33 / Fold change vs veh, TMEM33 / RFU, WDR75 / Fold change vs veh, WDR75 / RFU, AHCTF1 / Fold change vs veh, AHCTF1 / RFU, TFRC / Fold change vs veh, TFRC / RFU, ZDHHC17 / Fold change vs veh, ZDHHC17 / RFU, NOM1 / Fold change vs veh, NOM1 / RFU, ARL8B / Fold change vs veh, ARL8B / RFU, ZBTB11 / Fold change vs veh, ZBTB11 / RFU, TAMM41 / Fold change vs veh, TAMM41 / RFU, KIAA1704 /// LOC100996395 / Fold change vs veh, KIAA1704 /// LOC100996395 / RFU, ING1 / Fold change vs veh, ING1 / RFU, TRMT61B / Fold change vs veh, TRMT61B / RFU, FUBP3 / Fold change vs veh, FUBP3 / RFU, TP53 / Fold change vs veh, TP53 / RFU, TNKS2 / Fold change vs veh, TNKS2 / RFU, ZFP14 / Fold change vs veh, ZFP14 / RFU, ACTR2 / Fold change vs veh, ACTR2 / RFU, PPP3R1 / Fold change vs veh, PPP3R1 / RFU, PIK3R1 / Fold change vs veh, PIK3R1 / RFU, HNRNPA1 / Fold change vs veh, HNRNPA1 / RFU, RNF170 / Fold change vs veh, RNF170 / RFU, ZNF28 / Fold change vs veh, ZNF28 / RFU, RNGTT / Fold change vs veh, RNGTT / RFU, OGT / Fold change vs veh, OGT / RFU, BRD1 / Fold change vs veh, BRD1 / RFU, MARS / Fold change vs veh, MARS / RFU, ZNF655 / Fold change vs veh, ZNF655 / RFU, FAHD1 / Fold change vs veh, FAHD1 / RFU, BDP1 / Fold change vs veh, BDP1 / RFU, LRRCC1 / Fold change vs veh, LRRCC1 / RFU, ARID1A / Fold change vs veh, ARID1A / RFU, ZNF146 / Fold change vs veh, ZNF146 / RFU, ZNF330 / Fold change vs veh, ZNF330 / RFU, GPN3 / Fold change vs veh, GPN3 / RFU, C9orf123 / Fold change vs veh, C9orf123 / RFU, N4BP2L2 / Fold change vs veh, N4BP2L2 / RFU, ARFIP1 / Fold change vs veh, ARFIP1 / RFU, FAM179B / Fold change vs veh, FAM179B / RFU, BCL10 / Fold change vs veh, BCL10 / RFU, UHRF1BP1L / Fold change vs veh, UHRF1BP1L / RFU, BET1 / Fold change vs veh, BET1 / RFU, CNOT2 / Fold change vs veh, CNOT2 / RFU, ZNF268 / Fold change vs veh, ZNF268 / Fold change vs veh, ZNF507 / RFU, DGCR2 / Fold change vs veh, DGCR2 / RFU, WDSUB1 / Fold change vs veh, WDSUB1 / Fold change vs veh, HSP90B1 /// MIR3652 / RFU, ADSS / Fold change vs veh, ADSS / RFU, GK / Fold change vs veh, GK / RFU, ZNF148 / Fold change vs veh, ZNF148 / RFU, TAF9 / Fold change vs veh, TAF9 / RFU, SLC1A5 / Fold change vs veh, SLC1A5 / RFU, SLMO2 / Fold change vs veh, SLMO2 / RFU, ABCC4 / Fold change vs veh, ABCC4 / RFU, LOC101060439 /// RAP1B / Fold change vs veh, LOC101060439 /// RAP1B / RFU, RFX7 / Fold change vs veh, RFX7 / RFU, GTPBP10 / Fold change vs veh, GTPBP10 / RFU, CNEP1R1 / Fold change vs veh, CNEP1R1 / RFU, BIVM-ERCC5 /// ERCC5 / Fold change vs veh, BIVM-ERCC5 /// ERCC5 / RFU, ILF3 / Fold change vs veh, ILF3 / RFU 11762660_at / Fold change /veh 11762660_at / RFU VCAN (11757783_s_at) / Fold change /veh VCAN (11757783_s_at) / RFU DDX43 (11728927_at) / Fold change /veh DDX43 (11728927_at) / RFU KRT8 (11758188_x_at) / Fold change /veh KRT8 (11758188_x_at) / RFU NKD1 (11759106_at) / Fold change /veh NKD1 (11759106_at) / RFU SRD5A1 (11742802_a_at) / Fold change /veh SRD5A1 (11742802_a_at) / RFU TPSAB1 /// TPSB2 (11721975_s_at) / Fold change /veh TPSAB1 /// TPSB2 (11721975_s_at) / RFU GSTM3 (11746129_a_at) / Fold change /veh GSTM3 (11746129_a_at) / RFU IL23R (11737362_x_at) / Fold change /veh IL23R (11737362_x_at) / RFU TMEM51 (11727254_a_at) / Fold change /veh TMEM51 (11727254_a_at) / RFU PIWIL2 (11732686_x_at) / Fold change /veh PIWIL2 (11732686_x_at) / RFU ORM1 (11744905_x_at) / Fold change /veh ORM1 (11744905_x_at) / RFU CCDC152 (11743942_at) / Fold change /veh CCDC152 (11743942_at) / RFU ECM1 (11717891_a_at) / Fold change /veh ECM1 (11717891_a_at) / RFU IL23R (11748794_a_at) / Fold change /veh IL23R (11748794_a_at) / RFU TNFAIP8L3 (11732012_x_at) / Fold change /veh TNFAIP8L3 (11732012_x_at) / RFU MBOAT4 (11741988_at) / Fold change /veh MBOAT4 (11741988_at) / RFU 11764193_at / Fold change /veh 11764193_at / RFU TMEM53 (11763286_at) / Fold change /veh TMEM53 (11763286_at) / RFU MAGEB2 (11727129_at) / Fold change /veh MAGEB2 (11727129_at) / RFU TMEM200A (11744735_a_at) / Fold change /veh TMEM200A (11744735_a_at) / RFU CCDC152 (11751479_a_at) / Fold change /veh CCDC152 (11751479_a_at) / RFU FAM211A (11726209_a_at) / Fold change /veh FAM211A (11726209_a_at) / RFU RGS16 (11746705_a_at) / Fold change /veh RGS16 (11746705_a_at) / RFU VCAN (11755009_s_at) / Fold change /veh VCAN (11755009_s_at) / RFU RHOB (11743442_s_at) / Fold change /veh RHOB (11743442_s_at) / RFU RGS16 (11720943_a_at) / Fold change /veh RGS16 (11720943_a_at) / RFU RGS16 (11720944_at) / Fold change /veh RGS16 (11720944_at) / RFU, VPS4B / Fold change vs veh, VPS4B / RFU, CREB1 / Fold change vs veh, CREB1 / RFU, DNAJC13 / Fold change vs veh, DNAJC13 / RFU, GNAQ / Fold change vs veh, GNAQ / RFU, CDK5R1 / Fold change vs veh, CDK5R1 / RFU, ZRANB3 / Fold change vs veh, ZRANB3 / RFU, CUL4A / Fold change vs veh, CUL4A / RFU, CCNY / Fold change vs veh, CCNY / RFU, UFL1 / Fold change vs veh, UFL1 / RFU, COG3 / Fold change vs veh, COG3 / RFU, DIAPH2 / Fold change vs veh, DIAPH2 / RFU, SKA2 / Fold change vs veh, SKA2 / RFU, AFF3 / Fold change vs veh, AFF3 / RFU, LMF1 / Fold change vs veh, LMF1 / RFU, IPO11 / Fold change vs veh, IPO11 / RFU, DFFB / Fold change vs veh, DFFB / RFU, FOXP1 / Fold change vs veh, FOXP1 / RFU, CARD8 / Fold change vs veh, CARD8 / RFU, STRN3 / Fold change vs veh, STRN3 / RFU, ADK / Fold change vs veh, ADK / RFU, RASSF2 / Fold change vs veh, RASSF2 / RFU, WIPF1 / Fold change vs veh, WIPF1 / RFU, LARP1B / Fold change vs veh, LARP1B / RFU, RASA1 / Fold change vs veh, RASA1 / RFU, RB1 / Fold change vs veh, RB1 / RFU, PPFIA1 / Fold change vs veh, PPFIA1 / RFU, MAT2A / Fold change vs veh, MAT2A / RFU, CCT5 / Fold change vs veh, CCT5 / RFU, WDR92 / Fold change vs veh, WDR92 / RFU, CUX1 / Fold change vs veh, CUX1 / RFU, TTC7A / Fold change vs veh, TTC7A / RFU, TMEM135 / Fold change vs veh, TMEM135 / RFU, DEPTOR / Fold change vs veh, DEPTOR / RFU, CPM / Fold change vs veh, CPM / RFU, DNAJB6 / Fold change vs veh, DNAJB6 / RFU, CACNA2D3 / Fold change vs veh, CACNA2D3 / RFU, DTX4 / Fold change vs veh, DTX4 / RFU, TFCP2 / Fold change vs veh, TFCP2 / RFU, GMCL1 /// GMCL1P1 / Fold change vs veh, GMCL1 /// GMCL1P1 / RFU, AEBP2 / Fold change vs veh, AEBP2 / RFU, SNHG1 /// SNORD22 /// SNORD25 /// SNORD26 /// SNORD27 /// SNORD28 /// SNORD29 /// SNORD31 / Fold change vs veh, SNHG1 /// SNORD22 /// SNORD25 /// SNORD26 /// SNORD27 /// SNORD28 /// SNORD29 /// SNORD31 / Fold change (Aza/veh), C12orf56 (ProbeSet 11735607_a_at) / Fold change (ACY-1035/veh), C12orf56 (ProbeSet 11735607_a_at) / Fold change (Aza/veh), FGFR1OP (ProbeSet 11751329_s_at) / Fold change (ACY-1035/veh), FGFR1OP (ProbeSet 11751329_s_at) / Fold change (Aza/veh), VPS36 (ProbeSet 11739960_a_at) / Fold change (ACY-1035/veh), VPS36 (ProbeSet 11739960_a_at) / RFU SYPL1 (11715823_x_at) / Fold change /veh SYPL1 (11715823_x_at) / RFU IGFBP7 (11715501_s_at) / Fold change /veh IGFBP7 (11715501_s_at) / RFU REEP3 (11722064_at) / Fold change /veh REEP3 (11722064_at) / RFU IGLL1 (11728026_x_at) / Fold change /veh IGLL1 (11728026_x_at): dose or concentration left out as unconfirmed
Conditions: MV-4-11 cells, 48 hours

## Nc1ccc(-c2cccs2)cc1NC(=O)c1ccc2c(c1)cc(C1CC1)n2CCN1CCOCC1 [ACY-1035]
  RFU IGLL1 (11728026_x_at): 5.54 RFU
